The values below come from patent publication US6814958B1, “Food compositions, compositions for oral cavity and medicinal compositions for preventing or treating periodontosis and method for preventing or treating periodontosis” (priority 1998, dated 2004).

Molecules are shown by their SMILES.

Test [1] concerns the target T1, gelatinase derived from HGF cells (Homo sapiens, UniProt P08253).
T1 construct: endogenous in cells; host or cells: human gingiva fibroblasts (HGF), serum-free conditioned medium; purified on gelatin Sepharose 4B
T1 sequence (P08253 110-660): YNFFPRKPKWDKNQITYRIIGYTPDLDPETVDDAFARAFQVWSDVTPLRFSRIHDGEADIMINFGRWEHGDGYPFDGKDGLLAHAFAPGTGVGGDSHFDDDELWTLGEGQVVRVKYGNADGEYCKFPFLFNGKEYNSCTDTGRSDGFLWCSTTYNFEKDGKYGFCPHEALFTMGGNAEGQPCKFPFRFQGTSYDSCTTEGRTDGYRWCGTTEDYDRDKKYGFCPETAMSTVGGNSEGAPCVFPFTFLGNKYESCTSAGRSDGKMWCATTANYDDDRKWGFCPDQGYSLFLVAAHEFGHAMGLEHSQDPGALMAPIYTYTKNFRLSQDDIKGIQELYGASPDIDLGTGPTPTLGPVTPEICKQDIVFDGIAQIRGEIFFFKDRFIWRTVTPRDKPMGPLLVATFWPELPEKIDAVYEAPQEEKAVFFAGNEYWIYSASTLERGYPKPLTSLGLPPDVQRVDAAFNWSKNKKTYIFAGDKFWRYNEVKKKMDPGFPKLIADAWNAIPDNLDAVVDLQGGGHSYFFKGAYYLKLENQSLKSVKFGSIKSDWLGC
Kind of test: Inhibitory effect on gelatinase derived from HGF cells (FITC-labelled type IV collagen). In kind it is biochemical. The following applies: 42° C; read-out: 50% inhibiting concentration, Gelatinase HGF (converted).
Protocol: The measurement method was the same as the above method for measuring the inhibitory activity on the collagenase (2-1). However, the reaction temperature was set at 42° C. The measurement was also carried out on tetracycline by the same method.

The target of test [2] is T2, collagenase derived from human gingiva fibroblasts (HGF cell) (Homo sapiens, UniProt P03956).
T2 construct: endogenous in cells; host or cells: human gingiva fibroblasts (HGF), serum-free conditioned medium; purified on CM Sepharose and zinc chelating Sepharose
T2 sequence (P03956 100-469): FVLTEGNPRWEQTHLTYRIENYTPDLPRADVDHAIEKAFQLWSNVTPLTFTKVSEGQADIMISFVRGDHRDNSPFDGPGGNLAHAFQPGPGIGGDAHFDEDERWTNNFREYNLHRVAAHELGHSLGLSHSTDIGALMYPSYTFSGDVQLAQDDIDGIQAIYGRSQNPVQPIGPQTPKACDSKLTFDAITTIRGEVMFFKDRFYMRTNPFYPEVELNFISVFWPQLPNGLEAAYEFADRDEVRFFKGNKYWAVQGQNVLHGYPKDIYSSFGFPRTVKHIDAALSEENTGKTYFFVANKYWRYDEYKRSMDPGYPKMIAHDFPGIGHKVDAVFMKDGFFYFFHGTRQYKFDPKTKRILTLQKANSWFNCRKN
Kind of test: Inhibitory effect on collagenase derived from HGF cells (FITC-labelled type I collagen, method of Nagai et al.). In kind it is biochemical. The following applies: 37° C, 4 hours; control free of test substance = 100%; read-out: 50% inhibiting concentration, Collagenase HGF (converted).
Protocol: The collagenase derived from human gingiva fibroblasts (hereinafter abbreviated as “HGF cell”) for use in this test was prepared in the following manner: human procollagenase which was produced in Dulbecco modification MEM culture medium of non-blood serum using the HGF cells was refined using CM Sepharose™ (manufactured by Pharmacia Company) and zinc chelating Sepharose™ (manufactured by Pharmacia Company). The resulting substance was dissolved in a buffer solution and then was activated. The activation was carried out by incubating using aminophenyl acetic acid mercury (manufactured by Sigma Co.) as an activator at 37° C. for 4 hours.
The measurement of the inhibitory effects on collagenase of the extract containing the natural polyphenol of the above 1-1 was conducted by determining the collagenase activity of the extract. […] Specifically, 40 μl of activated human collagenase (2U/ml), 50 μg of the matrix and a test substance which was dissolved in 40 μl of an assay buffer were mixed. The mixture was allowed to react at 37° C for 4 hours. The collagenase activity of the control (free of the test substance) was regarded as 100%.

The test system of test [3] is collagenase production by human gingiva fibroblasts and human gingival epithelium cells. The following applies: of the medium with no nicotine added; 0.05% nicotine. How it is done: Measurements were carried out by the method described in Test Example 2. However, to the culture medium was added 0.05% nicotine, together with the test substance and 1% fetal bovine serum. The collagenase activity of the culture medium supernatant of the control (the culture medium containing only nicotine) was regarded as 100%, and the relative proportion of the collagenase activity when the test substances were added was determined.

The next test concerns HGF cells and HGK cells. The following applies: of the medium with no nicotine added; 0.05% nicotine. As for the experimental part:
HGF cells and HGK cells were inoculated into separate 96-well plates for tissue culture in an amount of 5,000 cells/well. These HGF cells and HGK cells were incubated at 37° C. for 1 day. Then, the incubated HGF cells were diluted in a Dulbecco modification MEM culture medium containing the test substance, 0.05% nicotine and 1% fetal bovine serum, while the incubated HGK cells were diluted in a culture medium for epithelium containing the test substance, 0.05% nicotine and 1% fetal bovine serum. The cells were incubated on the media for 5 days, and the cell proliferation activities of the cells were observed. Meanwhile, as a control was used the culture medium to which only nicotine was added. After the test substances were cultivated for 5 days, the cells were fixed in a 10% formalin solution and staining in crystal violet. The absorbance of the resulting cells at 590 nm was determined to calculate the population of the cells. The relative proportion of the test substances when the value of the control (culture medium to which only nicotine was added) was 100% was obtained.

Turning to `CN(C)[C@@H]1C(O)=C(C(N)=O)C(=O)[C@@]2(O)C(O)=C3C(=O)c4c(O)cccc4[C@@](C)(O)[C@H]3C[C@@H]12` [Tetracycline], the values for the IC50 in test [1] and in test [2] were 19.6 µM and 5.63 µM, respectively.

Consider `CN1CCCC1c1cccnc1` (stereo not shown) [nicotine], for which the “increase rate of collagenase production by addition of nicotine” value in test [3] is 380%. In addition, the “reduction of cell proliferation by addition of nicotine” value in the test on HGF cells and HGK cells is recorded as 52%.
